Assay results published in paper PMC5371824, “Phosphatidylinositol (4,5)-bisphosphate dynamically regulates the K2P background K^+ channel TASK-2” (Scientific Reports, 2017).
Numbering of substitutions follows the chain as printed. “Also recorded” adds a separate entry of the source.

Assays:
[1] = target: T1, TASK-2 (Mus musculus, UniProt F6V9U5); assay: Excised inside-out patch recording from HEK-293 cells over-expressing TASK-2; format: biochemical; details: for Effect of readmitted ATP relative to the maximal effect elicited by the PIP: 1 mM ATP added after PIP, inside-out patches, Fig. S3; for Stimulating effect on TASK-2-mediated currents after run-down: diC8 PIP added to inside-out excised patches; for Stimulating effect on TASK-2-mediated currents after run-down / Maximal fold effect on TASK-2 current (normalised to current in absence of PIP) / EC50 / Hill coefficient nH of dose response curve: absence of ATP; for Maximal fold effect on TASK-2 current (normalised to current in absence of PIP) / EC50 / Hill coefficient nH of dose response curve: diC8 PIP; for Maximal fold effect on TASK-2 current (normalised to current in absence of PIP) / EC50: -60 mV, from fits, means ± SEM; for EC50: read-out: K0.5 (EC50) for activation of TASK-2 current
T1 construct: expressed in transfected cells; host or cells: HEK-293
T1 sequence (F6V9U5 1-502): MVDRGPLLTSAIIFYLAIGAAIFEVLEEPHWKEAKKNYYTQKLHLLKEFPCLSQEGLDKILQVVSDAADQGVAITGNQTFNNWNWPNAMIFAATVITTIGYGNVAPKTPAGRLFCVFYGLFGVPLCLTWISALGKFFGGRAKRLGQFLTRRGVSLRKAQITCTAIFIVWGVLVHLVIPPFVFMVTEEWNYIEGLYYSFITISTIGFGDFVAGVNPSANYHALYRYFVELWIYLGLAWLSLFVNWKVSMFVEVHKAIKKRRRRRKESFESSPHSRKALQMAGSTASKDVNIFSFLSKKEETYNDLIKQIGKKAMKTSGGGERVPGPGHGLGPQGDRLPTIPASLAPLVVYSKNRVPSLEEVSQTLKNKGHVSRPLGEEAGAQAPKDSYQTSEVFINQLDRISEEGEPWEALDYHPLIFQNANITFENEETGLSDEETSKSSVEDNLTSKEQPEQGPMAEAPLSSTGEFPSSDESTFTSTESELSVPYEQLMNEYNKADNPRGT
Experimental: Recordings in the inside-out isolated patch configuration were performed in the gap-free mode at −60 mV. The inside aspect of the patch was bathed with a solution containing in mM: 10 KCl, 10 Glucose, 1 MgCl2, 10 EGTA, 1 Na3ATP, 0.1 GTP, 6.8 g/100 ml Sucrose, 10 Hepes/Tris, pH 7.4. The pipette contained in mM: 140 KCl, 10 Glucose, 6.8 g/100 ml Sucrose, 10 Hepes/Tris pH 7.4. For isolated patches, borosilicate capillaries (Harvard Apparatus GC150F-10 1.5 ODx0.86 ID) were fire polished to 4–5 MΩ and covered in beeswax. Acquisition was at 10 kHz with filter at 3 kHz (4-pole Bessel) and analysis was done with Clampfit 9.0 (Axon Instruments, Foster City, CA, USA). Traces shown are prints from crude Clampfit screen shots and quantification was done using the average currents were calculated at intervals using Clampfit after baseline adjustment.

[2] = target: T2, TASK-2-K297C (Mus musculus, UniProt F6V9U5, K297C); assay: Excised inside-out patch recording, TASK-2-K297C mutant; format: biochemical; details: 2 mM reducing agent, inside-out patch
T2 construct: expressed in transfected cells; host or cells: HEK-293
T2 sequence (F6V9U5 1-502 K297C): T1 sequence (F6V9U5 1-502) with K297C
Experimental: Figure 6 Scanning of potential sites of interaction of TASK-2 with PI(4,5)P2 by cysteine mutagenesis of intracellular basic residues. (A) Schematic representation of TASK-2 topology showing the sequences of segments of the protein predicted to be intracellular or intracellular-facing. Basic residues are highlighted in red. (B) Recording from an excised inside-out patch of membrane taken from a HEK-293 cell over-expressing TASK-2. The patch was held at −60 mV in the presence of 1 mM ATP. At the intervals indicated by the boxes the intracellular aspect of the membrane was exposed to 300 μM Neomycin and then to 100 μM TPeA. At the end of the TPeA period the patch was additionally exposed to 1 mM MTSET as shown by the black box. (C and D) experiments as in (B), but with inside-out membrane patches obtained from cells expressing the mutants TASK-2-H327C and TASK-2-K297C respectively. In D the reducing agent DTT was also added at 2 mM. (E) Summary of experiments comparing the current before and after treatment with MTSET.
Mus musculus TASK-2 (GenBank accession No. AF319542) plasmid was that obtained from mouse kidney. The cDNAs was subcloned into the pCR3.1 vector. Mutations were made by site-directed mutagenesis into the pCR3.1 vector as previously described[69] and confirmed by sequencing. HEK-293 cells were cultured in Dulbecco’s modified Eagle’s medium (DMEM) and F12 Ham’s medium at a 1:1 ratio and supplemented with 10% fetal calf serum at 37 °C in 5% CO2. For electrophysiological experiments, transient transfections were performed by electroporation, using CD8 cotransfection to identify effectively transfected cells. […] Experiments were performed 4–8 h after electroporation. […]
Recordings in the inside-out isolated patch configuration were performed in the gap-free mode at −60 mV. […] Traces shown are prints from crude Clampfit screen shots and quantification was done using the average currents were calculated at intervals using Clampfit after baseline adjustment.

[3] = target: T1, TASK-2; assay: Whole-cell patch-clamp of HEK-293 cells expressing TASK-2; format: cell-based
Experimental: Mus musculus TASK-2 (GenBank accession No. AF319542) plasmid was that obtained from mouse kidney. The cDNAs was subcloned into the pCR3.1 vector. Mutations were made by site-directed mutagenesis into the pCR3.1 vector as previously described[69] and confirmed by sequencing. HEK-293 cells were cultured in Dulbecco’s modified Eagle’s medium (DMEM) and F12 Ham’s medium at a 1:1 ratio and supplemented with 10% fetal calf serum at 37 °C in 5% CO2. For electrophysiological experiments, transient transfections were performed by electroporation, using CD8 cotransfection to identify effectively transfected cells. […] Experiments were performed 4–8 h after electroporation. In experiments with the voltage-sensitive phosphatase TASK-2 or its mutants were co-electroporated with a pCR3.1-DrVSP-IRES-CD8 vector.
Transiently transfected HEK-293 cells in 35 mm Petri dishes were transferred to the stage of an inverted microscope for study. There they were continuously superfused with a bathing solution containing (in mM): 67.5 Na2SO4, 4 KCl, 1 K gluconate, 2 CaCl2, 1 MgCl2, 105 sucrose, and 10 Hepes/Tris (pH 7.5) (standard solution). A high K^+ solution was obtained by equimolar replacement of Na^+ by K^+. The pipette solution contained (mM) 8 KCl, 132 potassium gluconate, 1 MgCl2, 10 EGTA, 1 Na3ATP, 0.1 GTP, 10 HEPES/Tris, pH 7.4. Standard whole-cell, patch-clamp recordings were performed as described elsewhere. All our whole-cell experiments keep both intra- and extracellular chloride at 10 mM and although currents were measured at several potentials, data mostly reported are those obtained at 0 mV. Potentials were corrected for liquid junction shifts. Acquisition and analysis was done with Clampfit 9.0 (Axon Instruments, Foster City, CA, USA). Further data analysis was done using the curve fitting features of SigmaPlot v. 12 (Systat Software Inc., San Jose, CA, USA).

[4] = test system: TASK-3; assay: Whole-cell current in TASK-3-expressing cells; format: cell-based; details: 100 nM 1,2-dioctanoyl-sn-glycerol, pulses to 0 mV from -75 mV
Experimental: (§1) Figure 3 Gq protein coupled receptor inhibition of TASK-2 and minor effect of diacylglycerol. (A) Effect of activation of the angiotensin II receptor AT1 on TASK-2-mediated currents. HEK-293 cells were co-transfected with AT1 and TASK-2, or the TASK-2-K257A-K258A mutant. Current was monitored by brief pulses to 0 mV from a holding potential of −75 mV. Angiotensin II at a concentration of 1 μM was added during the indicated time. Results are means ± SEM of 6 experiments for TASK-2 and 4 experiments for TASK-2-K257A-K258A. (B) Effect of a diacylglycerol analogue assayed on TASK-2- and TASK-3-expressing cells. Current was monitored by brief pulses to 0 mV from a holding potential of −75 mV. The box labelled DAG indicates the addition of diacylglycerol short-chain analogue 1,2-dioctanoyl-sn-glycerol at 100 nM. Results are means ± SEM of 5 experiments for TASK-2 and 8 experiments for TASK-3.
(§2) Transiently transfected HEK-293 cells in 35 mm Petri dishes were transferred to the stage of an inverted microscope for study. […] All our whole-cell experiments keep both intra- and extracellular chloride at 10 mM and although currents were measured at several potentials, data mostly reported are those obtained at 0 mV. […]

[5] = test system: TASK-2 expressed with angiotensin II AT1 receptors; assay: Whole-cell current in HEK-293 cells co-transfected with AT1 and TASK-2; format: cell-based, Mus musculus; details: 1 μM, pulses to 0 mV from -75 mV
Experimental: Transiently transfected HEK-293 cells in 35 mm Petri dishes were transferred to the stage of an inverted microscope for study. There they were continuously superfused with a bathing solution containing (in mM): 67.5 Na2SO4, 4 KCl, 1 K gluconate, 2 CaCl2, 1 MgCl2, 105 sucrose, and 10 Hepes/Tris (pH 7.5) (standard solution). […] All our whole-cell experiments keep both intra- and extracellular chloride at 10 mM and although currents were measured at several potentials, data mostly reported are those obtained at 0 mV. […]

[6] = test system: TASK-2-K257A-K258A; assay: Whole-cell current in HEK-293 cells co-transfected with AT1 and TASK-2-K257A-K258A; format: cell-based, Mus musculus; details: 1 μM, pulses to 0 mV from -75 mV, Gβγ-insensitive mutant
Experimental: as §1
Mus musculus TASK-2 (GenBank accession No. AF319542) plasmid was that obtained from mouse kidney. The cDNAs was subcloned into the pCR3.1 vector. […]
as §2

With `O[C@@H](CS)[C@@H](O)CS` (racemic) [DTT, dithiothreitol] the “Reversal of MTSET inhibition of WT TASK-2” value ([1]; 2 mM reducing agent, inside-out patch, Fig. S4) was “reversibility of the effect” and the “Reversal of the MTSET effect on TASK-2-K297C” value [2] was “reversed, at least partially”.

For `Nc1ncnc2c1ncn2[C@@H]1O[C@H](CO[P@](=O)(O)O[P@](=O)(O)O[P@@](=O)(O)S)[C@@H](O)[C@H]1O` [ATP-γ-S, adenosine-5′-(γ-thio)-triphosphate], the “Ability to support TASK-2-mediated current in place of ATP” value ([3]; whole-cell, pipette solution with non-hydrolysable analogue, 0 mV) was “unable to support the TASK-2-mediated current”.

In the case of `CCCCCCCC(=O)OC[C@H](CO)OC(=O)CCCCCCC` [DAG, 1,2-dioctanoyl-sn-glycerol], the “Effect on TASK-2 current” value ([3]; 100 nM 1,2-dioctanoyl-sn-glycerol, pulses to 0 mV from -75 mV) is reported as “only a minor effect” and the “Effect on TASK-3 current” value [4] is reported as “strong inhibition”.

With `CCCCCCCC(=O)OC[C@H](COP(=O)(O)O[C@H]1[C@H](O)[C@@H](O)[C@H](OP(=O)(O)O)[C@@H](OP(=O)(O)O)[C@H]1O)OC(=O)CCCCCCC` [PI(3,4)P2, phosphatidylinositol 3,4-bisphosphate diC8] the “Effect of readmitted ATP relative to the maximal effect elicited by the PIP” value [1] was 1.4 fold, the “Stimulating effect on TASK-2-mediated currents after run-down” value (“Stimulating effect” for short) [1] was “Robust, but intermediate effects” and the “Maximal fold effect on TASK-2 current (normalised to current in absence of PIP)” value ([1]; inside-out patch) was 4.3 ± 0.4 fold. The EC50 ([1]; inside-out patch) was 48.4 ± 4.6 µM and the “Hill coefficient nH of dose response curve” value ([1]; inside-out patch) was 2.

`CCCCCCCC(=O)OC[C@H](COP(=O)(O)O[C@H]1[C@H](O)[C@@H](OP(=O)(O)O)[C@H](OP(=O)(O)O)[C@@H](OP(=O)(O)O)[C@H]1O)OC(=O)CCCCCCC` [PI(3,4,5)P3, phosphatidylinositol 3,4,5-trisphosphate diC8] was tested, and the “Stimulating effect” value [1] was “Largest effect; also recorded: most potent effect”, the “Maximal fold effect on TASK-2 current (normalised to current in absence of PIP)” value ([1]; inside-out patch) was 11.6 ± 1.6 fold and the EC50 ([1]; inside-out patch) was 29.8 ± 10.2 µM.

`CCCCCCCC(=O)OC[C@H](COP(=O)(O)O[C@H]1[C@H](O)[C@@H](O)[C@H](OP(=O)(O)O)[C@@H](O)[C@H]1O)OC(=O)CCCCCCC` [PI(4)P, phosphatidylinositol 4-monophosphate diC8] was tested, and the “Effect of readmitted ATP relative to the maximal effect elicited by the PIP” value [1] was 5.6 fold, the “Stimulating effect” value [1] was “quite small; also recorded: rather weak” and the “Maximal fold effect on TASK-2 current (normalised to current in absence of PIP)” value ([1]; inside-out patch) was 1.4 ± 0.4 fold. The EC50 ([1]; inside-out patch) was 50.6 ± 1.3 µM and the “Hill coefficient nH of dose response curve” value ([1]; inside-out patch) was 2.

In the case of `CCCCC[N+](CCCCC)(CCCCC)CCCCC` [TPeA, tetrapentyl ammonium], the IC50 [1] is reported as ~2 µM.

For “angiotensin II (DRVYIHPF; Angiotensin-2; UniProt P01019 25-32, looked up) [agonist of the Gq-coupled angiotensin II AT1 receptor]”, the “Effect on TASK-2-mediated current via AT1 receptor” value [5] was “markedly inhibited” and the “Effect on TASK-2-K257A-K258A current via AT1, compared with TASK-2” value [6] was “not significantly different”.

With poly-lysine the “Inhibition of TASK-2 activity by polycation PI scavengers” value ([1]; in the presence of intracellular ATP) was “inhibit TASK-2 activity”.
